Results on 20 molecules are retold here after patent US8119624B2, “Fused phenyl amido heterocyclic compounds” (Pfizer Inc., priority 2006, dated 2012).

SMILES strings stand for the structures. pEC50: −log10 of the molar value.

Broadly, the pEC50 is the EC50 on a negative log10 scale, so that one unit is a factor of ten.

The target of the assay is T1, Full-length glucokinase (beta cell isoform) (Homo sapiens, UniProt P35557).
T1 construct: Full-length glucokinase (beta cell isoform) was His-tagged at N-terminus; His tag (N); made in house
T1 sequence (P35557 1-465): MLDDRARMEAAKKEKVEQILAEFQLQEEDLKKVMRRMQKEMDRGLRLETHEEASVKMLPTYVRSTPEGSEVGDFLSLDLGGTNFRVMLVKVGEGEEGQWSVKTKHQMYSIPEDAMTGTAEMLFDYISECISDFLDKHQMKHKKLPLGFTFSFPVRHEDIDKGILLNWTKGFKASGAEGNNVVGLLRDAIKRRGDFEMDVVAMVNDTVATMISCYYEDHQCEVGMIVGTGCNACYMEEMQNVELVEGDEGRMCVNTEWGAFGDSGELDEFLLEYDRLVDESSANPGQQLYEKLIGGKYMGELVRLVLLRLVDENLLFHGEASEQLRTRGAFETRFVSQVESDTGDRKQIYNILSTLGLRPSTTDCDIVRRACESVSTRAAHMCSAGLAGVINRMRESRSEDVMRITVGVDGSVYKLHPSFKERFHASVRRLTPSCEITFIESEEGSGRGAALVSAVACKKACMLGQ
Put plainly: Glucokinase biochemical assay (PK/LDH-coupled, NADH depletion at 340 nm): % activation, EC50, % max activation. The following applies: 5 mM glucose; for activation at 10 µM: 10 uM compound, % Activation=(Va/Vo−1)×100, read-out: % Activation at 10 uM; for pEC50: GK activation, read-out: EC50; for Emax: fitted maximum activation, read-out: % Max Activation. The gist of the method:
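Activation expressed as (Va/Vo−1)×100, where initial rates with and without compound come from NADH depletion at 340 nm over 200–900 s. Enzyme is His-tagged human beta-cell GK, full length, run at room temperature in HEPES buffer with 1 mM ATP and 5 mM glucose. DMSO 1%.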

With `CN(C)C1CN(C(=O)c2ccc(Oc3cc(C(=O)Nc4ccn(C)n4)cc4c3CC(C)(C)O4)c(F)c2)C1` [Example 44, 4-[4-(3-Dimethylamino-azetidine-1-carbonyl)-2-fluoro-phenoxy]-2,2-dimethyl-2,3-dihydro-benzofuran-6-carboxylic acid(1-methyl-1H-pyrazol-3-yl)-amide], the activation at 10 µM turned out to be 137%, the pEC50 was 6.24 and the Emax was 146%.
In the same order, the values of `Cn1ccc(NC(=O)c2cc(Oc3ccc(C(=O)N4CC(O)C4)cc3F)c3c(c2)OC(C)(C)C3)n1` [Example 45, 4-[2-Fluoro-4-(3-hydroxy-azetidine-1-carbonyl)-phenoxy]-2,2-dimethyl-2,3-dihydro-benzofuran-6-carboxylic acid(1-methyl-1H-pyrazol-3-yl)-amide] are 150%, 6.24 and 146%.
In the same order, the values of `CN(C)C(=O)c1ccc(Oc2cc(C(=O)Nc3ccn(C)n3)cc3c2CC(C)(C)O3)c(F)c1` [Example 46, 4-(4-Dimethylcarbamoyl-2-fluoro-phenoxy)-2,2-dimethyl-2,3-dihydro-benzofuran-6-carboxylic acid(1-methyl-1H-pyrazol-3-yl)-amide] are 118%, 6.51 and 138%.
In the same order, the values of `Cn1ccc(NC(=O)c2cc(Oc3ccc(C(=O)N4CCOCC4)cc3)c3c(c2)OC(C)(C)C3)n1` [Example 47, 2,2-Dimethyl-4-[4-(morpholine-4-carbonyl)-phenoxy]-2,3-dihydro-benzofuran-6-carboxylic acid(1-methyl-1H-pyrazol-3-yl)-amide] are 140%, 5.98 and 156%.
Consider `Cn1ccc(NC(=O)c2cc(Oc3ccc(C(=O)N4CCCC4)cc3)c3c(c2)OC(C)(C)C3)n1` [Example 48, 2,2-Dimethyl-4-[4-(pyrrolidine-1-carbonyl)-phenoxy]-2,3-dihydro-benzofuran-6-carboxylic acid(1-methyl-1H-pyrazol-3-yl)-amide], for which the activation at 10 µM was determined as 130%, the pEC50 is 6.85 and the Emax amounted to 114%.
In the same order, the values of `CN(C)C1CN(C(=O)c2ccc(Oc3cc(C(=O)Nc4ccn(C)n4)cc4c3CC(C)(C)O4)cc2)C1` [Example 49, 4-[4-(3-Dimethylamino-azetidine-1-carbonyl)-phenoxy]-2,2-dimethyl-2,3-dihydro-benzofuran-6-carboxylic acid(1-methyl-1H-pyrazol-3-yl)-amide] are 133%, 6.34 and 147%.
As for `Cn1ccc(NC(=O)c2cc(Oc3ccc(C(=O)N4CC(F)(F)C4)cc3)c3c(c2)OC(C)(C)C3)n1` [Example 50, 4-[4-(3,3-Difluoro-azetidine-1-carbonyl)-phenoxy]-2,2-dimethyl-2,3-dihydro-benzofuran-6-carboxylic acid(1-methyl-1H-pyrazol-3-yl)-amide], the activation at 10 µM was determined as 146%, the pEC50 was 6.25 and the Emax turned out to be 149%.
With `Cn1ccc(NC(=O)c2cc(Oc3ccc(C(=O)N4CCOCC4)c(F)c3)c3c(c2)OC(C)(C)C3)n1` [Example 51, 4-[3-Fluoro-4-(morpholine-4-carbonyl)-phenoxy]-2,2-dimethyl-2,3-dihydro-benzofuran-6-carboxylic acid(1-methyl-1H-pyrazol-3-yl)-amide], the activation at 10 µM stood at 129%, the pEC50 was 6.60 and the Emax came out at 130%.
Regarding `Cn1ccc(NC(=O)c2cc(Oc3ccc(C(=O)N4CC(F)(F)C4)c(F)c3)c3c(c2)OC(C)(C)C3)n1` [Example 52, 4-[4-(3,3-Difluoro-azetidine-1-carbonyl)-3-fluoro-phenoxy]-2,2-dimethyl-2,3-dihydro-benzofuran-6-carboxylic acid(1-methyl-1H-pyrazol-3-yl)-amide], the activation at 10 µM stood at 136%, the pEC50 is 6.55 and the Emax was 151%.
In the same order, the values of `CN1CCN(C(=O)c2ccc(Oc3cc(C(=O)Nc4ccn(C)n4)cc4c3CC(C)(C)O4)cc2F)CC1` [Example 53, 4-[3-Fluoro-4-(4-methyl-piperazine-1-carbonyl)-phenoxy]-2,2-dimethyl-2,3-dihydro-benzofuran-6-carboxylic acid(1-methyl-1H-pyrazol-3-yl)-amide] are 125%, 6.19 and 135%.
The corresponding values for `CN(C)C(=O)c1ccc(Oc2cc(C(=O)Nc3ccn(C)n3)cc3c2CC(C)(C)O3)cc1F` [Example 54, 4-(4-Dimethylcarbamoyl-3-fluoro-phenoxy)-2,2-dimethyl-2,3-dihydro-benzofuran-6-carboxylic acid(1-methyl-1H-pyrazol-3-yl)-amide] are 83.3%, 7.09 and 101%.
In the same order, the values of `Cn1ccc(NC(=O)c2cc(Oc3ccc(C(=O)N4CC(O)C4)c(F)c3)c3c(c2)OC(C)(C)C3)n1` [Example 55, 4-[3-Fluoro-4-(3-hydroxy-azetidine-1-carbonyl)-phenoxy]-2,2-dimethyl-2,3-dihydro-benzofuran-6-carboxylic acid(1-methyl-1H-pyrazol-3-yl)-amide] are 143%, 6.17 and 129%.
As for `Cn1ccc(NC(=O)c2cc(Oc3ccc(C(=O)N4CCCC4)c(F)c3)c3c(c2)OC(C)(C)C3)n1` [Example 56, 4-[3-Fluoro-4-(pyrrolidine-1-carbonyl)-phenoxy]-2,2-dimethyl-2,3-dihydro-benzofuran-6-carboxylic acid(1-methyl-1H-pyrazol-3-yl)-amide], the activation at 10 µM was 107%, the pEC50 is 7.29 and the Emax was found to be 108%.
As to `CN(C)C1CN(C(=O)c2ccc(Oc3cc(C(=O)Nc4ccn(C)n4)cc4c3CC(C)(C)O4)cc2F)C1` [Example 57, 4-[4-(3-Dimethylamino-azetidine-1-carbonyl)-3-fluoro-phenoxy]-2,2-dimethyl-2,3-dihydro-benzofuran-6-carboxylic acid(1-methyl-1H-pyrazol-3-yl)-amide], the activation at 10 µM was 131%, the pEC50 was 6.19 and the Emax turned out to be 148%.
In the same order, the values of `Cn1ccc(NC(=O)c2cc(Oc3ccc(C(=O)N4CC[C@@H](F)C4)c(F)c3)c3c(c2)OC(C)(C)C3)n1` [Example 58, 4-[3-Fluoro-4-((R)-3-fluoro-pyrrolidine-1-carbonyl)-phenoxy]-2,2-dimethyl-2,3-dihydro-benzofuran-6-carboxylic acid(1-methyl-1H-pyrazol-3-yl)-amide] are 55.3%, 7.12 and 88%.
In the same order, the values of `CO[C@@H]1CCN(C(=O)c2ccc(Oc3cc(C(=O)Nc4ccn(C)n4)cc4c3CC(C)(C)O4)cc2F)C1` [Example 59, 4-[3-Fluoro-4-((R)-3-methoxy-pyrrolidine-1-carbonyl)-phenoxy]-2,2-dimethyl-2,3-dihydro-benzofuran-6-carboxylic acid(1-methyl-1H-pyrazol-3-yl)-amide] are 172%, 6.60 and 168%.
Regarding `CO[C@H]1CCN(C(=O)c2ccc(Oc3cc(C(=O)Nc4ccn(C)n4)cc4c3CC(C)(C)O4)cc2F)C1` [Example 60, 4-[3-Fluoro-4-((S)-3-methoxy-pyrrolidine-1-carbonyl)-phenoxy]-2,2-dimethyl-2,3-dihydro-benzofuran-6-carboxylic acid(1-methyl-1H-pyrazol-3-yl)-amide], the activation at 10 µM came to 172%, the pEC50 is 6.57 and the Emax was 167%.
In the same order, the values of `Cn1ccc(NC(=O)c2cc(Oc3ccc(C(=O)N4CCCCC4)c(F)c3)c3c(c2)OC(C)(C)C3)n1` [Example 61, 4-[3-Fluoro-4-(piperidine-1-carbonyl)-phenoxy]-2,2-dimethyl-2,3-dihydro-benzofuran-6-carboxylic acid(1-methyl-1H-pyrazol-3-yl)-amide] are 109%, 7.00 and 107%.
As to `Cn1ccc(NC(=O)c2cc(Oc3ccc(C(=O)N4CC[C@H](O)C4)c(F)c3)c3c(c2)OC(C)(C)C3)n1` [Example 62, 4-[3-Fluoro-4-((S)-3-hydroxy-pyrrolidine-1-carbonyl)-phenoxy]-2,2-dimethyl-2,3-dihydro-benzofuran-6-carboxylic acid(1-methyl-1H-pyrazol-3-yl)-amide], the activation at 10 µM came to 153%, the pEC50 was 6.15 and the Emax came out at 165%.
As for `Cn1ccc(NC(=O)c2cc(Oc3ccc(C(=O)N4CC[C@H](F)C4)c(F)c3)c3c(c2)OC(C)(C)C3)n1` [Example 63, 4-[3-Fluoro-4-((S)-3-fluoro-pyrrolidine-1-carbonyl)-phenoxy]-2,2-dimethyl-2,3-dihydro-benzofuran-6-carboxylic acid(1-methyl-1H-pyrazol-3-yl)-amide], the activation at 10 µM is 170%, the pEC50 is 6.64 and the Emax was determined as 158%.
